In this experiment the test system is IL-1β release upon NLRP3 activation in peripheral blood mononuclear cells (PBMC). The experiment in a line: PBMC IC50 determination assay (IL-1β release, Protocol A ELISA / Protocol B HTRF). The class given is cell-based. As to conditions: Homo sapiens. On the procedure: The compounds of the present disclosure were tested for their inhibitory activity against IL-1β release upon NLRP3 activation in peripheral blood mononuclear cells (PBMC).
Isolated cells were seeded into the wells of a 96-well plate and incubated for 3 h with lipopolysaccharide (LPS). Following medium exchange, the compounds of the present disclosure were added (a single compound per well) and the cells were incubated for 30 min. Next, the cells were stimulated either with ATP (5 mM) or nigericin (10 μM) for 1 h and the cell culture media from the wells were collected for further analysis.
The release of IL1-β into the media was determined by a quantitative detection of IL-1β in the media using an IL-1β enzyme-linked immunosorbent assay (ELISA) Ready-SET-Go!, eBioscience cat. […] Subsequently, plates were blocked with blocking buffer for 1 h at room temperature (rt) and after washing with a buffer (PBS with 0.05% Tween-20) incubated with protein standard and culture media. […] Plates were washed and incubated with HRP-streptavidin for 30 min at rt and washed again. The signal was developed after addition of 3,3′,5,5′-tetramethylbenzidine-peroxidase (TMB) until colour appeared and the reaction was stopped by 2 M H2SO4. A microplate spectrophotometer (BioTek) was used to detect signals with 450 nm. The detection range of IL-1β ELISA was 2-150 ng/ml.
Isolated cells were seeded into the wells (280,000 cells/well) of a 96-well plate and incubated for 3 h with lipopolysaccharide (LPS, 1 μg/ml diluted 1000× from a 1 mg/ml stock solution). The compounds of the present disclosure were added (a single compound per well) and the cells were incubated for 30 min. Next, the cells were stimulated with ATP (5 mM final concentration diluted 20× from a 100 mM stock solution) for 1 h and the cell culture media from the wells were collected for further analysis.
The release of IL-1β into the media was determined by quantitative detection of IL-1β in the media using HTRF®, CisBio cat. No. 62HIL1BPEH. Briefly, cell culture supernatant were dispensed directly into the assay plate containing antibodies labelled with the HTRF® donor and acceptor. A microplate spectrophotometer (BMG) was used to detect signals at 655 nm and 620 nm. The detection range of IL-1β HTRF® was 39-6500 pg/ml.

Where [1] appears, read: PBMC primed with LPS 3 h, compound 30 min, stimulated with ATP (5 mM) or nigericin (10 μM) 1 h, IL-1β in media, read-out: Average PBMC IC50.
Where [2] appears, read: PBMC, read-out: Average PBMC IC50 (μM).

The values that follow come from patent US12459925B2, “Sulphonyl urea derivatives as NLRP3 inflammasome modulators” (priority 2017, dated 2025).

The IC50 is the concentration at which inhibition is half-maximal.

Like-named read-outs stand apart in the source and are kept apart here.

Take `Cn1cc(N(C2CCOCC2)S(=O)(=O)NC(=O)Nc2c3c(cc4c2CCC4)CCC3)cn1` [Compound 1]: the IC50 under setting [1] was under 1 µM.
Take `CN1CCC(N(c2cnn(C)c2)S(=O)(=O)NC(=O)Nc2c3c(cc4c2CCC4)CCC3)CC1` [Compound 2]: the IC50 under setting [1] is under 1 µM.
Consider `CN1CCC(CN(c2cnn(C)c2)S(=O)(=O)NC(=O)Nc2c3c(cc4c2CCC4)CCC3)CC1` [Compound 3], for which the concentration for half-maximal inhibition (IC50) under setting [1] was 1 to 3 µM.
Regarding `CC(C)n1cc(N(C2CCOCC2)S(=O)(=O)NC(=O)Nc2c3c(cc4c2CCC4)CCC3)cn1` [Compound 4], the IC50 under setting [1] was under 1 µM.
In the case of `CC(C)n1cc(N(C2CCN(C)CC2)S(=O)(=O)NC(=O)Nc2c3c(cc4c2CCC4)CCC3)cn1` [Compound 5], the IC50 under setting [1] is under 1 µM.
Regarding `CCn1cc(N(C2CCOCC2)S(=O)(=O)NC(=O)Nc2c3c(cc4c2CCC4)CCC3)cn1` [Compound 6], under setting [1], the IC50 was under 1 µM.
For the molecule `CCn1cc(N(C2CCN(C)CC2)S(=O)(=O)NC(=O)Nc2c3c(cc4c2CCC4)CCC3)cn1` [Compound 7], under setting [1], the half-maximal inhibitory concentration (IC50) was under 1 µM.
On to `Cn1cc(N(C2CCOC2)S(=O)(=O)NC(=O)Nc2c3c(cc4c2CCC4)CCC3)cn1` (stereo not drawn) [Compound 8], for which the IC50 under setting [1] was under 1 µM.
With `Cn1ccc(N(C2CCOCC2)S(=O)(=O)NC(=O)Nc2c3c(cc4c2CCC4)CCC3)n1` [Compound 9], under setting [1], the IC50 is under 1 µM.
As for `Cc1c(N(C2CCOCC2)S(=O)(=O)NC(=O)Nc2c3c(cc4c2CCC4)CCC3)cnn1C` [Compound 10], the IC50 under setting [1] was under 1 µM.
As for `Cc1nn(C)c(C)c1N(C1CCOCC1)S(=O)(=O)NC(=O)Nc1c2c(cc3c1CCC3)CCC2` [Compound 11], under setting [1], the IC50 was under 1 µM.
Still for that read-out and setting: with `Cc1cc(N(C2CCOCC2)S(=O)(=O)NC(=O)Nc2c3c(cc4c2CCC4)CCC3)no1` [Compound 12] the figure was 3 to 10 µM.
For the molecule `O=C(Nc1c2c(cc3c1CCC3)CCC2)NS(=O)(=O)N(c1cnoc1)C1CCOCC1` [Compound 13], under setting [1], the IC50 was under 1 µM.
Same read-out and setting: under `Cc1c(N(C2CCN(C)CC2)S(=O)(=O)NC(=O)Nc2c3c(cc4c2CCC4)CCC3)cnn1C` [Compound 14] stands under 1 µM.
For `Cc1nn(C)c(C)c1N(C1CCN(C)CC1)S(=O)(=O)NC(=O)Nc1c2c(cc3c1CCC3)CCC2` [Compound 15], the IC50 under setting [1] was 1 to 3 µM.
Still for that read-out and setting: with `Cn1cc(N(CC2COC2)S(=O)(=O)NC(=O)Nc2c3c(cc4c2CCC4)CCC3)cn1` [Compound 16] the figure was under 1 µM; with `O=C(Nc1c2c(cc3c1CCC3)CCC2)NS(=O)(=O)N(c1cncnc1)C1CCOCC1` [Compound 17], under 1 µM; with `Cc1cc(N(C2CCOCC2)S(=O)(=O)NC(=O)Nc2c3c(cc4c2CCC4)CCC3)on1` [Compound 18], under 1 µM.
Take `Cn1cnc(N(C2CCOCC2)S(=O)(=O)NC(=O)Nc2c3c(cc4c2CCC4)CCC3)n1` [Compound 19]: the IC50 under setting [1] lay in the range of 3 to 10 µM.
Consider `CN1CCC(N(c2ccn(C)n2)S(=O)(=O)NC(=O)Nc2c3c(cc4c2CCC4)CCC3)CC1` [Compound 20], for which, under setting [1], the IC50 was under 1 µM.
Still for that read-out and setting: under `Cn1cnc(N(C2CCOCC2)S(=O)(=O)NC(=O)Nc2c3c(cc4c2CCC4)CCC3)c1` [Compound 21] stands 3 to 10 µM.
On to `Cn1cc(N(C2CCCOC2)S(=O)(=O)NC(=O)Nc2c3c(cc4c2CCC4)CCC3)cn1` (stereo not drawn) [Compound 22], for which the IC50 under setting [1] is under 1 µM.
In the case of `CN1CCCC(N(c2cnn(C)c2)S(=O)(=O)NC(=O)Nc2c3c(cc4c2CCC4)CCC3)C1` (stereo not drawn) [Compound 23], the IC50 under setting [1] was under 1 µM.
With `CN1CCC(N(c2cnn(C)c2)S(=O)(=O)NC(=O)Nc2c3c(cc4c2CCC4)CCC3)C1` (stereo not drawn) [Compound 24], the IC50 under setting [1] was under 1 µM.
On to `O=C(Nc1c2c(cc3c1CCC3)CCC2)NS(=O)(=O)N(c1cnn(C(F)F)c1)C1CCOCC1` [Compound 25], for which the IC50 under setting [1] was under 1 µM.
As for `O=C(Nc1c2c(cc3c1CCC3)CCC2)NS(=O)(=O)N(c1cnn(CC(F)(F)F)c1)C1CCOCC1` [Compound 26], the IC50 under setting [1] was under 1 µM.
The same measure, in the same setting: under `COCn1cc(N(C2CCOCC2)S(=O)(=O)NC(=O)Nc2c3c(cc4c2CCC4)CCC3)cn1` [Compound 27] stands under 1 µM; under `COCn1cc(N(C2CCN(C)CC2)S(=O)(=O)NC(=O)Nc2c3c(cc4c2CCC4)CCC3)cn1` [Compound 28], under 1 µM; under `COCCn1cc(N(C2CCOCC2)S(=O)(=O)NC(=O)Nc2c3c(cc4c2CCC4)CCC3)cn1` [Compound 29], under 1 µM.
Same read-out and setting: under `N#CCn1cc(N(C2CCOCC2)S(=O)(=O)NC(=O)Nc2c3c(cc4c2CCC4)CCC3)cn1` [Compound 30] stands under 1 µM; under `CN1CCC(N(c2cnn(CC#N)c2)S(=O)(=O)NC(=O)Nc2c3c(cc4c2CCC4)CCC3)CC1` [Compound 31], under 1 µM; under `CCN1CCC(N(c2cnn(C)c2)S(=O)(=O)NC(=O)Nc2c3c(cc4c2CCC4)CCC3)CC1` [Compound 32], under 1 µM.
Consider `CC(C)N1CCC(N(c2cnn(C)c2)S(=O)(=O)NC(=O)Nc2c3c(cc4c2CCC4)CCC3)CC1` [Compound 33], for which the half-inhibitory concentration (IC50) under setting [1] was 1 to 3 µM.
Still for that read-out and setting: with `CN1CCC(N(c2cnn(C(F)F)c2)S(=O)(=O)NC(=O)Nc2c3c(cc4c2CCC4)CCC3)CC1` [Compound 34] the figure was under 1 µM.
Same read-out and setting: with `O=C(Nc1c2c(cc3c1CCC3)CCC2)NS(=O)(=O)N(c1cnn(CC(F)F)c1)C1CCOCC1` [Compound 35] the figure was under 1 µM; with `CN1CCC(N(c2cnn(CC(F)F)c2)S(=O)(=O)NC(=O)Nc2c3c(cc4c2CCC4)CCC3)CC1` [Compound 36], under 1 µM.
In the case of `CN1CCC(N(c2cnn(CC(F)(F)F)c2)S(=O)(=O)NC(=O)Nc2c3c(cc4c2CCC4)CCC3)CC1` [Compound 37], the IC50 under setting [1] is under 1 µM.
Same read-out and setting: under `COCCn1cc(N(C2CCN(C)CC2)S(=O)(=O)NC(=O)Nc2c3c(cc4c2CCC4)CCC3)cn1` [Compound 38] stands under 1 µM; under `CN1CCC(N(c2cnn(C3CC3)c2)S(=O)(=O)NC(=O)Nc2c3c(cc4c2CCC4)CCC3)CC1` [Compound 39], under 1 µM.
`CN1CCC(N(c2cn[nH]c2)S(=O)(=O)NC(=O)Nc2c3c(cc4c2CCC4)CCC3)CC1` [Compound 40]: under setting [2], the IC50 was in the range of 1 to 3 µM.
As for `O=C(Nc1c2c(cc3c1CCC3)CCC2)NS(=O)(=O)N(c1cnn(C2COC2)c1)C1CCOCC1` [Compound 41], the IC50 under setting [1] was under 1 µM.
Turning to `CN1CCC(N(c2cnn(C3COC3)c2)S(=O)(=O)NC(=O)Nc2c3c(cc4c2CCC4)CCC3)CC1` [Compound 42], the IC50 under setting [1] is under 1 µM.
The same measure, in the same setting: under `CN(C)CCn1cc(N(C2CCOCC2)S(=O)(=O)NC(=O)Nc2c3c(cc4c2CCC4)CCC3)cn1` [Compound 43] stands under 1 µM; under `CN1CCC(N(c2cnn(C3CCC3)c2)S(=O)(=O)NC(=O)Nc2c3c(cc4c2CCC4)CCC3)CC1` [Compound 44], under 1 µM.
With `Cn1cc(N(C2CCN(CC(F)F)CC2)S(=O)(=O)NC(=O)Nc2c3c(cc4c2CCC4)CCC3)cn1` [Compound 45], the IC50 under setting [2] is 1 to 3 µM.
With `Cn1cc(N(CCN2CCOCC2)S(=O)(=O)NC(=O)Nc2c3c(cc4c2CCC4)CCC3)cn1` [Compound 46], under setting [1], the concentration for half-maximal inhibition (IC50) was under 1 µM.
Same read-out and setting: under `CN1CCC(N(c2cnn(C)c2)S(=O)(=O)NC(=O)Nc2c3c(cc4c2CCC4)CCC3)CC1=O` (stereo not drawn) [Compound 47] stands 1 to 3 µM.
With `O=C(Nc1c2c(cc3c1CCC3)CCC2)NS(=O)(=O)N(c1cn[nH]c1)C1CCOCC1` [Compound 48], the IC50 under setting [2] was under 1 µM.
As for `CC(C)c1cc(NC(=O)NS(=O)(=O)N(c2cnn(C)c2)C2CCN(C)CC2)cc(C(C)C)c1` [Compound 49], the IC50 under setting [1] was under 1 µM.
Still for that read-out and setting: with `CCN1CCC(N(c2cnn(C)c2)S(=O)(=O)NC(=O)Nc2c3c(cc4c2CCC4)CCC3)C1` (stereo not drawn) [Compound 50] the figure was under 1 µM; with `CC(C)N1CCC(N(c2cnn(C)c2)S(=O)(=O)NC(=O)Nc2c3c(cc4c2CCC4)CCC3)C1` (stereo not drawn) [Compound 51], under 1 µM.
In the case of `CC(C)N1CCCC(N(c2cnn(C)c2)S(=O)(=O)NC(=O)Nc2c3c(cc4c2CCC4)CCC3)C1` (stereo not drawn) [Compound 52], the IC50 under setting [1] was under 1 µM.
Same read-out and setting: under `CCc1cc(CC)cc(NC(=O)NS(=O)(=O)N(c2cnn(C)c2)C2CCN(C)CC2)c1` [Compound 53] stands under 1 µM.
As for `Cn1cc(N(C2CN3CCC2CC3)S(=O)(=O)NC(=O)Nc2c3c(cc4c2CCC4)CCC3)cn1` (stereo not drawn) [Compound 54], the IC50 under setting [2] was under 1 µM.
Consider `CC(C)n1cc(N(C2CCCN(C)C2)S(=O)(=O)NC(=O)Nc2c3c(cc4c2CCC4)CCC3)cn1` (stereo not drawn) [Compound 55], for which the IC50 under setting [1] was under 1 µM.
For the molecule `CC(C)n1cc(N(C2CCN(C)C2)S(=O)(=O)NC(=O)Nc2c3c(cc4c2CCC4)CCC3)cn1` (stereo not drawn) [Compound 56], the IC50 under setting [1] was under 1 µM.
Same read-out and setting: under `CN1CCC(CN(c2cnn(C)c2)S(=O)(=O)NC(=O)Nc2c3c(cc4c2CCC4)CCC3)C1` (stereo not drawn) [Compound 57] stands under 1 µM.
